target: T1, HMG-CoA synthase (Rattus norvegicus, UniProt P17425); assay: HMG-CoA Synthase Inhibition Assay; format: biochemical; settings: Table I; rat liver enzyme, 1-[14C]-acetyl-CoA incorporation
T1 construct: The livers from male Charles River CD rats (225-350 g) were homogenized; from tissue; host or cells: rat liver (male Charles River CD rats), 100,000 x g supernatant, ammonium sulfate and DEAE-52 fraction
T1 sequence (P17425 1-520): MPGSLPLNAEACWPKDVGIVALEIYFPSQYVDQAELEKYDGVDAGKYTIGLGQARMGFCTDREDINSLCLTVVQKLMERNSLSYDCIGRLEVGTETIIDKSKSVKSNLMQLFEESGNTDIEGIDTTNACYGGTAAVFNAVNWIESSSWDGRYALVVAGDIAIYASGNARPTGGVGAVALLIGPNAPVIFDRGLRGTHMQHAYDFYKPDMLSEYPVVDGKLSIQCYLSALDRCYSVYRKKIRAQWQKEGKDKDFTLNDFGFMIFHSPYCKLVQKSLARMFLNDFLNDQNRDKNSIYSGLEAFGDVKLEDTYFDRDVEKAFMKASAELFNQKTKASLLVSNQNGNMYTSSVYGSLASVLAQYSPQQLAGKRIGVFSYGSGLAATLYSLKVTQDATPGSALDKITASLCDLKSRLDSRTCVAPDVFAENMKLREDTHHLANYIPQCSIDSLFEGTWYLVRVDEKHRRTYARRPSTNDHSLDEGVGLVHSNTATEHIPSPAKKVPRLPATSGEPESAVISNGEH
Experimental: The intrinisic HMG-CoA synthase inhibition activity of the compounds of this invention is measured by the standard in vitro protocol described below:
The livers from male Charles River CD rats (225-350 g) were homogenized in 0.25 M sucrose which was adjusted with phenylmethylsulfonylfluoride (PMSF) and N-p-tosyl-1-lysine chloromethyl ketone (TLCK) so that the final concentration of each was […], respectively. The homogenate was centrifuged at 15,000× g for 20 minutes, the supernatant filtered through a fine nylon screen to remove most of the fat layer and recentrifuged at 100,000× g for 1 hour. This supernatant was removed and 1 M potassium phosphate, dithiothreitol (DTT) and ethylene glycolbis(β-aminoethyl ether)-N,N,N',N'-tetraacetic acid (EGTA) added to give a final concentration of 0.1 M (pH 7.2), 0.5 mM and 0.1 mM, respectively. Solid ammonium sulfate was added to 50% saturation to the protein solution, it was centrifuged at 15,000× g and the supernatant discarded. This precipitated protein could be stored at -70° C. for at least one month with very little loss of activity. The ammonium sulfate precipitate was dissolved in an minimal amount of 0.06 M potassium phosphate buffer (pH 7.2) containing 0.5 mM dithiothreitol and 0.1 mM EGTA (referred to as 0.06 M phosphate buffer) and dialyzed overnight against 2 liters of the same buffer to remove the ammonium sulfate and to inactivate HMG-CoA lyase [Clinkenbeard, et al., J. Biol. Chem. 250, 3108-3116(1975)].
The dialyzed extract was added to a column of DEAE-52 (Whatman) which had been equilibrated with 0.06 M phosphate buffer (10 mg of protein in 1 ml bed volume of the resin). The DEAE-cellulose was eluted with 0.06 M phosphate buffer until the optical density at 280 nm was essentially zero. This fraction contained the β-ketoacetyl-CoA thiolase activity. The HMG-CoA synthase was eluted from the column with 0.1 M phosphate buffer (pH 7.2) containing 0.5 mM DTT and […] EGTA, and was virtually free of all thiolase activity. The protein was precipitated by the addition of ammonium sulfate to give 50% saturation. This solution was stirred for 10 minutes at 4° C. and the precipitate collected by centrifugation at 15,000 rpm for 10 minutes. The supernatant was discarded and the precipitate dissolved in a minimum of 0.06 M phosphate buffer, pH 7.2 (about 10 ml) and the enzyme stored at -80° C.
HMG-CoA Synthase Inhibition Assay
Enzyme protein (ca. 24 mg) was added to a solution containing […] Tris-HCl (pH 8.0), 11.7 μM MgCl2, 1.17 μM ethylenediaminetetraacetic acid (EDTA), 0.58 μM dithiothreitol, and the indicated concentrations of the test compound (added as a 2 mg/ml solution in dimethylsulfoxide). The incubation took place in a volume of 0.085 ml at 30° in a shaking water bath. After 5 minutes, […] of a solution containing acetoacetyl-CoA and 0.1 μCi of 1-[^14 C]-acetyl-CoA was added to give a final concentrations of 0.1 and 0.4 μM, respectively. The incubation was continued for 10 more minutes and the reaction stopped by the addition of […] of the assay mixture to 0.2 ml of 6N HCl in a glass scintillation vial. The vial was heated for 1 hour at 120° after which time 0.2 ml more of 6N HCl was again added to each vial and the heating continued for another hour. Following this, 1.0 ml of 0.9% saline was added to each vial and finally 10 ml of scintillation liquid. Radioactivity was determined in a Packard Tri-Carb liquid scintillation counter. Percent inhibition is calculated by the formula: [formula]
IC50 values were determined by plotting the log of the concentration of the test compound verses the percentage inhibition and fitting a straight line to the resulting data by using the least squares method.

Compared with `CC[C@@H]1C(=O)N(S(=O)(=O)c2ccc(C)cc2)[C@@H]1COC(=O)c1ccc(C(=O)O)cc1` (relative stereo) [Table I x], `CC[C@@H]1C(=O)N(S(=O)(=O)c2ccc(C)cc2)[C@@H]1COC(=O)c1ccc([N+](=O)[O-])cc1` (relative stereo) [Table I y] is 12-fold lower in IC50: 350 nM for the first, 28 nM for the second. The second is the more potent here.

Going from `CCC[C@@H]1C(=O)N(S(=O)(=O)c2ccc(C)cc2)[C@@H]1COC(=O)c1ccc(OC)cc1` (relative stereo) [Table I z] to `CC[C@@H]1C(=O)N(S(=O)(=O)c2ccc(C)cc2)[C@@H]1COC(=O)c1ccc(OC)cc1` [Table I i], the IC50 falls from 69.5 nM to 30 nM (2.3-fold).

Going from `CC[C@@H]1C(=O)N(S(=O)(=O)c2ccc(C)cc2)[C@@H]1COC(=O)c1ccco1` [Table I gg] to `CC[C@H]1C(=O)N(S(=O)(=O)c2ccc(C)cc2)[C@H]1COC(=O)c1ccc(OC)cc1` [Table I j], the IC50 rises from 11 nM to 200 nM (18-fold). The first is the more potent here.

same assay, conditions: Table II; rat liver enzyme, 1-[14C]-acetyl-CoA incorporation

Going from `CC[C@@H]1C(=O)N(S(=O)(=O)c2ccc(C)cc2)[C@@H]1COC(=O)/C=C/c1ccc(OC)cc1` (relative stereo) [Table II a] to `CC[C@@H]1C(=O)N(S(=O)(=O)c2ccc(C)cc2)[C@@H]1COC(=O)/C=C/c1cccnc1` (relative stereo) [Table II h], the IC50 rises from 9.5 nM to 31 nM (3.3-fold). The first is the more potent here.

Compared with `CC[C@@H]1C(=O)N(S(=O)(=O)c2ccc(C)cc2)[C@@H]1COC(=O)Cc1ccco1` (relative stereo) [Table II l], `CC[C@@H]1C(=O)N(S(=O)(=O)c2ccc(C)cc2)[C@@H]1COC(=O)/C=C/c1ccco1` (relative stereo) [Table II m] is 9.6-fold lower in IC50: 2400 nM for the first, 250 nM for the second. The second is the more potent here.

Going from `CC[C@@H]1C(=O)N(S(=O)(=O)c2ccc(C)cc2)[C@@H]1COC(=O)COc1ccccc1` (relative stereo) [Table II n] to `CC[C@H]1C(=O)N(S(=O)(=O)c2ccc(C)cc2)[C@H]1COC(=O)CSc1ccccc1` (relative stereo) [Table II q], the IC50 rises from 24 nM to 42 nM (1.8-fold).

First: CCOc1ccc(CC(=O)OC[C@@H]2[C@H](CC)C(=O)N2S(=O)(=O)c2ccc(C)cc2)cc1C (relative stereo) [Table II o]
Second: CC[C@H]1C(=O)N(S(=O)(=O)c2ccc(C)cc2)[C@H]1COC(=O)Cc1ccc(OC)c(OC)c1 (relative stereo) [Table II y]
The IC50 of the first is 14-fold lower: 2.1 nM for the first, 30 nM for the second.

Compared with `CC[C@@H]1C(=O)N(S(=O)(=O)c2ccc(C)cc2)[C@@H]1COC(=O)Cc1ccccn1` (relative stereo) [Table II p], `CCOc1ccc(CC(=O)OC[C@H]2[C@@H](CC)C(=O)N2S(=O)(=O)c2ccc(C)cc2)cc1` (relative stereo) [Table II r] is 2.2-fold higher in IC50: 10 nM for the first, 22 nM for the second.

Compared with `CC[C@H]1C(=O)N(S(=O)(=O)c2ccc(C)cc2)[C@H]1COC(=O)Cc1cc(OC)c(OC)c(OC)c1` (relative stereo) [Table II s], `CC[C@H]1C(=O)N(S(=O)(=O)c2ccc(C)cc2)[C@H]1COC(=O)/C=C/c1cc(OC)c(OC)c(OC)c1` (relative stereo) [Table II t] is 1.9-fold higher in IC50: 20 nM for the first, 38 nM for the second. The first is the more potent here.

Going from `CCCOc1c(Br)cc(/C=C/C(=O)OC[C@@H]2[C@H](CC)C(=O)N2S(=O)(=O)c2ccc(C)cc2)cc1OC` (relative stereo) [Table II u] to `CC[C@H]1C(=O)N(S(=O)(=O)c2ccc(C)cc2)[C@H]1COC(=O)/C=C/c1ccc(OC)c(OC)n1` (relative stereo) [Table II z], the IC50 falls from 90 nM to 27 nM (3.3-fold).

First: CC[C@H]1C(=O)N(S(=O)(=O)c2ccc(C)cc2)[C@H]1COC(=O)Nc1ccc(C)cc1 (relative stereo) [Table II v]
Second: CC[C@H]1C(=O)N(S(=O)(=O)c2ccc(C)cc2)[C@H]1COC(=O)Nc1ccc(C(F)(F)F)cc1 (relative stereo) [Table II x]
The IC50 of the first is 5-fold lower: 52 nM for the first, 260 nM for the second.

First: CC[C@H]1C(=O)N(S(=O)(=O)c2ccc(C)cc2)[C@H]1COC(=O)NC1CCCCC1 (relative stereo) [Table II w]
Second: CC[C@@H]1C(=O)N(S(=O)(=O)c2ccc(C)cc2)[C@@H]1COC(=O)[C@H](OC)c1ccccc1 [Table II d, cis-(3S), (4S)-3-Ethyl-4-[(R)-α-methoxyphenylacetoxyl]methyl-N-toluenesulfonyl-2-azetidinone]
The IC50 of the first is 3-fold higher: 54 nM for the first, 18 nM for the second. The second is the more potent here.

`CO[C@H](C(=O)OC[C@@H]1CC(=O)N1S(=O)(=O)c1ccc(C)cc1)c1ccccc1` [Table II e] and `CO[C@@H](C(=O)OC[C@@H]1CC(=O)N1S(=O)(=O)c1ccc(C)cc1)c1ccccc1` [Table II f] are within 1.5-fold of each other in IC50: 42 nM for the first, 50 nM for the second.

Compound `CC[C@@H]1C(=O)N(S(=O)(=O)c2ccc(C)cc2)[C@@H]1COC(=O)/C=C/c1ccc(OC)cc1` [Table II k] has an IC50 of 11 nM.

same assay, conditions: Table III; rat liver enzyme, 1-[14C]-acetyl-CoA incorporation

Work on `CC[C@H]1C(=O)N(S(=O)(=O)c2ccc(C)cc2)[C@H]1COS(=O)(=O)c1ccc(C)cc1` (relative stereo) [Table III] yielded an IC50 of 110 nM.

same assay, conditions: Table IV; rat liver enzyme, 1-[14C]-acetyl-CoA incorporation

`CCC[C@H]1C(=O)N(S(=O)(=O)c2ccc(C)cc2)[C@@H]1C=Cc1ccccc1` (relative stereo) [Table IV a] and `CCC[C@H]1C(=O)N(S(=O)(=O)c2ccc(C)cc2)[C@H]1C=Cc1ccccc1` (relative stereo) [Table IV b] are within 1.5-fold of each other in IC50: 1500 nM for the first, 2200 nM for the second.

`Cc1ccc(S(=O)(=O)N2C(=O)[C@H](CO)[C@H]2C=Cc2ccccc2)cc1` (relative stereo) [Table IV c] and `Cc1ccc(S(=O)(=O)N2C(=O)[C@H](CO)[C@@H]2C=Cc2ccccc2)cc1` (relative stereo) [Table IV d] are the same in IC50: 1100 nM for the first, 1100 nM for the second.

First: CC[C@@H]1C(=O)N(S(=O)(=O)c2ccc(C)cc2)[C@H]1C(C)=Cc1ccccc1 (relative stereo) [Table IV e]
Second: CC[C@@H]1C(=O)N(S(=O)(=O)c2ccc(C)cc2)[C@@H]1C(C)=Cc1ccccc1 (relative stereo) [Table IV f]
The IC50 of the first is 120-fold higher: 50000 nM for the first, 430 nM for the second. The second is the more potent here.

same assay, conditions: Table V; rat liver enzyme, 1-[14C]-acetyl-CoA incorporation

Compared with `CC[C@H]1C(=O)N(S(=O)(=O)c2ccc(C)cc2)[C@H]1CNc1ccc(C(=O)O)cc1` (relative stereo) [Table V a, (±) cis-3-Ethyl-4-hydroxycarbonylphenylaminomethyl-N-toluenesulfonyl-2-azetidinone], `CC[C@H]1C(=O)N(S(=O)(=O)c2ccc(C)cc2)[C@H]1CCc1ccccc1` (relative stereo) [Table V b] is 120-fold lower in IC50: 9900 nM for the first, 86 nM for the second. The second is the more potent here.

First: CCC1C(=O)N(S(=O)(=O)c2ccc(C)cc2)C1C(C)OC(=O)c1ccc(OC)cc1 (centres unmarked) [Table V c]
Second: CCC1C(=O)N(S(=O)(=O)c2ccc(C)cc2)C1C(OC(=O)c1ccc(OC)cc1)c1ccccc1 (centres unmarked) [Table V e]
The IC50 of the first is 17-fold lower: 120 nM for the first, 2000 nM for the second. The first is the more potent here.

Compared with `CCC1C(=O)N(S(=O)(=O)c2ccc(C)cc2)C1C(C)Cc1ccccc1` (centres unmarked) [Table V d], `CC(=O)OC(c1ccccc1)C(C)C1CC(=O)N1S(=O)(=O)c1ccc(C)cc1` (centres unmarked) [Table V f] is 2.8-fold higher in IC50: 175 nM for the first, 490 nM for the second.

Compound `CC(=O)OCC(C)C1CC(=O)N1S(=O)(=O)c1ccc(C)cc1` (centres unmarked) [Table V g] has an IC50 of 290 nM.
